The record followed here is patent publication US11530218B2, “Spiro compounds as inhibitors of KRAS” (Incyte Corporation, priority 2020, dated 2022).

One experiment concerns the target KRAS G12C (Homo sapiens, UniProt P01116, G12C). Briefly: KRAS G12C GDP-GTP exchange assay (bodipy-GDP/GppNHp, SOS1). It is filed as biochemical. The note with it: bodipy-loaded KRAS G12C 2.5 nM, 2 hours pre-incubation with inhibitor, 2 hours exchange; read-out: G12C_exchange (KRAS_G12C exchange assay IC50). The procedure: (§1) The inhibitor potency of the exemplified compounds was determined in a fluorescence based guanine nucleotide exchange assay, which measures the exchange of bodipy-GDP (fluorescently labeled GDP) for GppNHp (Non-hydrolyzable GTP analog) to generate the active state of KRAS in the presence of SOS1 (guanine nucleotide exchange factor). Inhibitors were serially diluted in DMSO and a volume of 0.1 μL was transferred to the wells of a black low volume 384-well plate. 5 μL/well volume of bodipy-loaded KRAS G12C diluted to 5 nM in assay buffer (25 mM Hepes pH 7.5, 50 mM NaCl, 10 mM MgCl2 and 0.01% Brij-35) was added to the plate and pre-incubated with inhibitor for 2 hours at ambient temperature. Appropriate controls (enzyme with no inhibitor or with a G12C inhibitor (AMG-510)) were included on the plate. The exchange was initiated by the addition of a 5 μL/well volume containing 1 mM GppNHp and 300 nM SOS1 in assay buffer. The 10 μL/well reaction concentration of the bodipy-loaded KRAS G12C, GppNHp, and SOS1 were 2.5 nM, 500 uM, and 150 nM, respectively. The reaction plates were incubated at ambient temperature for 2 hours, a time estimated for complete GDP-GTP exchange in the absence of inhibitor. For the KRAS G12D and G12V mutants, similar guanine nucleotide exchange assays were used with 2.5 nM as final concentration for the bodipy loaded KRAS proteins and with 4 hours and 3 hours incubation after adding GppNHp-SOS1 mixture for G12D and G12V respectively. A cyclic peptide described to selectively bind G12D mutant (Sakamoto et al., BBRC 484.3 (2017), 605-611) or internal compounds with confirmed binding were used as positive controls in the assay plates. Fluorescence intensities were measured on a PheraStar plate reader instrument (BMG Labtech) with excitation at 485 nm and emission at 520 nm.
(§2) Either GraphPad prism or XLfit was used to analyze the data. The IC50 values were derived by fitting the data to a four parameter logistic equation producing a sigmoidal dose-response curve with a variable Hill coefficient. Prism equation: Y=Bottom+(Top−Bottom)/(1+10^((Log IC50−X)*Hill slope)); XLfit equation: Y=(A+((B−A)/(1+((X/C)^D)))) where X is the logarithm of inhibitor concentration and Y is the response.

In experiment [1] the test system is KRAS G12C (MIA PaCa-2 cells). Briefly: KRAS_G12C cellular pERK HTRF assay. It is filed as cell-based, human. Details: G12C_pERK (KRAS_G12C pERK assay IC50): scale not given here. The note with it: cells incubated with compound 4 hours; for pIC50: Homo sapiens, MIA PaCa-2, read-out: G12C_pERK (KRAS_G12C pERK assay IC50). Here is the method:
(§3) MIA PaCa-2 (KRAS G12C; ATCC® CRL-1420), A427 (KRAS G12D; ATCC® HTB53), HPAF-II (KRAS G12D; ATCC® CRL-1997) and NCI-H838 (KRAS WT; ATCC® CRL-5844) cells are purchased from ATCC and maintained in RPMI 1640 media supplemented with 10% FBS (Gibco/Life Technologies). The cells are plated at 5000 cells per well (8 uL) into Greiner 384-well low volume, flat-bottom, tissue culture treated white plates and incubated overnight at 37° C., 5% CO2. The next morning, test compound stock solutions are diluted in media at 3x the final concentration, and 4 uL are added to the cells. The plate is mixed by gentle rotation for 30 seconds (250 rpm) at room temperature. The cells are incubated with the KRAS G12C and G12D compounds for 4 hours or 2 hours respectively at 37° C., 5% CO2.
(§4) 4 uL of 4× lysis buffer with blocking reagent (1:25) (Cisbio) are added to each well and plates are rotated gently (300 rpm) for 30 minutes at room temperature. 4 uL per well of Cisbio anti Phospho-ERK 1/2 d2 is mixed with anti Phospho-ERK 1/2 Cryptate (1:1) are added to each well, mixed by rotation and incubated overnight in the dark at room temperature. Plates are read on the Pherastar plate reader at 665 nm and 620 nm wavelengths. IC50 determination is performed by fitting the curve of inhibitor percent inhibition versus the log of the inhibitor concentration using the GraphPad Prism 7 software.

Experiment [2] deals with KRAS G12D (A427, HPAF-II cells). Briefly: KRAS_G12D cellular pERK HTRF assay. It is filed as cell-based. The note with it: cells incubated with compound 2 hours; read-out: G12D_pERK (KRAS_G12D pERK assay IC50). The procedure: as §3, §4
The next experiment has as its target KRAS G12D (Homo sapiens, UniProt P01116, G12D). The experiment in a line: KRAS G12D GDP-GTP exchange assay (bodipy-GDP/GppNHp, SOS1). It is filed as biochemical. The note with it: bodipy loaded KRAS G12D 2.5 nM, 4 hours incubation after GppNHp-SOS1; read-out: G12D_exchange (KRAS_G12D exchange assay IC50). The procedure:
as §1, §2

pIC50: −log10 of the molar value.

KRAS G12C, sequence (P01116 1-188 isoform P01116-2 G12C): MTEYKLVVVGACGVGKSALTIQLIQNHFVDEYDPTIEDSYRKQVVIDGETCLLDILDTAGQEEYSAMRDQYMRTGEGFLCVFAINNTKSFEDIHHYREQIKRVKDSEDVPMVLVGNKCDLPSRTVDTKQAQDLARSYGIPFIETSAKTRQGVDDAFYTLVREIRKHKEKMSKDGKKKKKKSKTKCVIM
KRAS G12D, sequence (P01116 1-188 isoform P01116-2 G12D): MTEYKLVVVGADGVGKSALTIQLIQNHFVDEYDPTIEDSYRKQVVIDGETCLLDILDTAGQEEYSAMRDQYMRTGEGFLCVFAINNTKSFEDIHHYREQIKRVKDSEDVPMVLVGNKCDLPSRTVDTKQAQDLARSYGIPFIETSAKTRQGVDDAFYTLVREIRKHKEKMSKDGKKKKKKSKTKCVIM

One may read the pIC50 as the negative decadic logarithm of the IC50, by convention in mol/L. Turning to `C=CC(=O)N1CCCC2(C1)C(=O)Nc1c(OC[C@@H]3CCCN3C)nc3c(F)c(-c4cc(O)cc5ccccc45)c(Cl)cc3c12` (mixture of isomers) [Example 15, 1-Acryloyl-8′-chloro-6′-fluoro-7′-(3-hydroxynaphthalen-1-yl)-4′-(((S)-1-methylpyrrolidin-2-yl)methoxy)spiro[piperidine-3,1′-pyrrolo[2,3-c]quinolin]-2′(3′H)-one], the pIC50 on KRAS G12C was 5.30 to 6.00.
Take `C=CC(=O)N1CCC2(C1)Nc1c(cnc3c(F)c(-c4c(C)ccc5[nH]ncc45)c(Cl)cc13)NC2=O` (racemic) [Example 9, 1′-Acryloyl-9-chloro-7-fluoro-8-(5-methyl-1H-indazol-4-yl)-1,4-dihydro-3H-spiro[pyrazino[2,3-c]quinoline-2,3′-pyrrolidin]-3-one]: the pIC50 at KRAS G12C is 5.30 to 6.00.
With `C=CC(=O)N1CCC2(CC1)C(=O)N(C)c1c(OC[C@@H]3CCCN3C)nc3c(F)c(-c4cc(O)cc5ccccc45)c(Cl)cc3c12` (single isomer, unassigned) [Example 16a], in experiment [1], the “G12C_pERK (KRAS_G12C pERK assay IC50)” value is recorded as “††”.
`CC(C)CCN1C(=O)C2(CCCNC2)c2c1c(OC[C@@H]1CCCN1C)nc1c(F)c(-c3cc(O)cc4ccccc34)c(CCCC#N)cc21` (single isomer, unassigned) [Example 35a]: the figures for the pIC50 (in experiment [2]; on KRAS G12D) were 4.30 to 5.30 and at least 7.00, respectively.
Consider `C=CC(=O)N1CCC2(CC1)Nc1c(cnc3c(F)c(-c4c(O)cccc4F)c(Cl)cc13)NC2=O` [Example 1, 1-Acryloyl-9′-chloro-7′-fluoro-8′-(2-fluoro-6-hydroxyphenyl)-1′,4′-dihydro-3′H-spiro[piperidine-4,2′-pyrazino[2,3-c]quinolin]-3′-one], for which, in experiment [1], the pIC50 is 5.30 to 6.00.
On to `C=CC(=O)N1CCC2(CC1)Nc1c(cnc3c(F)c(-c4cc(O)ccc4Cl)c(Cl)cc13)NC2=O` [Example 2, 1-Acryloyl-9′-chloro-8′-(2-chloro-5-hydroxyphenyl)-7′-fluoro-1′,4′-dihydro-3′H-spiro[piperidine-4,2′-pyrazino[2,3-c]quinolin]-3′-one], for which the pIC50 in experiment [1] was 5.30 to 6.00.
With `C=CC(=O)N1CCC2(CC1)Nc1c(cnc3c(F)c(-c4cccc5[nH]nc(C)c45)c(Cl)cc13)NC2=O` [Example 3, 1-Acryloyl-9′-chloro-7′-fluoro-8′-(3-methyl-1H-indazol-4-yl)-1′,4′-dihydro-3′H-spiro[piperidine-4,2′-pyrazino[2,3-c]quinolin]-3′-one], the pIC50 on KRAS G12C was 5.30 to 6.00.
The same measure, in the same setting: as for `C=CC(=O)N1CCC2(CC1)Nc1c(cnc3c(F)c(-c4c(F)cccc4OC)c(Cl)cc13)NC2=O` [Example 5, 1-Acryloyl-9′-chloro-7′-fluoro-8′-(2-fluoro-6-methoxyphenyl)-1′,4′-dihydro-3′H-spiro[piperidine-4,2′-pyrazino[2,3-c]quinolin]-3′-one], the figure is 5.30 to 6.00.
With `C=CC(=O)N1CC2(C1)Nc1c(cnc3c(F)c(-c4c(O)cccc4F)c(Cl)cc13)NC2=O` [Example 6, 1-Acryloyl-9′-chloro-7′-fluoro-8′-(2-fluoro-6-hydroxyphenyl)-1′,4′-dihydro-3′H-spiro[azetidine-3,2′-pyrazino[2,3-c]quinolin]-3′-one], the pIC50 in experiment [1] was 5.30 to 6.00.
On the same count and under the same terms, as for `C=CC(=O)N1CC2(C1)Nc1c(cnc3c(F)c(-c4c(C)ccc5[nH]ncc45)c(Cl)cc13)NC2=O` [Example 7, 1-Acryloyl-9′-chloro-7′-fluoro-8′-(5-methyl-1H-indazol-4-yl)-1′,4′-dihydro-3′H-spiro[azetidine-3,2′-pyrazino[2,3-c]quinolin]-3′-one], the figure is 5.30 to 6.00; as for `C=CC(=O)N1CCC2(C1)Nc1c(cnc3c(F)c(-c4c(O)cccc4F)c(Cl)cc13)NC2=O` (stereo not shown) [Example 8, 1′-Acryloyl-9-chloro-7-fluoro-8-(2-fluoro-6-hydroxyphenyl)-1,4-dihydro-3H-spiro[pyrazino[2,3-c]quinoline-2,3′-pyrrolidin]-3-one], 5.30 to 6.00.
Turning to `C=CC(=O)N1CCC2(CC1)Nc1c(c(OC[C@@H]3CCCN3C)nc3c(F)c(-c4c(O)cccc4F)c(Cl)cc13)NC2=O` [Example 10, 1-Acryloyl-9′-chloro-7′-fluoro-8′-(2-fluoro-6-hydroxyphenyl)-5′-(((S)-1-methylpyrrolidin-2-yl)methoxy)-1′,4′-dihydro-3′H-spiro[piperidine-4,2′-pyrazino[2,3-c]quinolin]-3′-one], the pIC50 at KRAS G12C is at least 7.00; in experiment [1] it was 5.30 to 6.00.
For the compound `C=CC(=O)N1CCC2(CC1)Nc1c(c(OC[C@@H]3CCCN3C)nc3c(F)c(-c4cc(O)cc5ccccc45)c(Cl)cc13)NC2=O` [Example 11, 1-Acryloyl-9′-chloro-7′-fluoro-8′-(3-hydroxynaphthalen-1-yl)-5′-(((S)-1-methylpyrrolidin-2-yl)methoxy)-1′,4′-dihydro-3′H-spiro[piperidine-4,2′-pyrazino[2,3-c]quinolin]-3′-one], the pIC50 on KRAS G12C is at least 7.00. Also, the “G12C_pERK (KRAS_G12C pERK assay IC50)” value in experiment [1] is on record as “††”.
With `C=CC(=O)N1CCC2(CC1)Nc1c(c(OCCN3CCCCC3)nc3c(F)c(-c4c(O)cccc4F)c(Cl)cc13)NC2=O` [Example 12, 1-Acryloyl-9′-chloro-7′-fluoro-8′-(2-fluoro-6-hydroxyphenyl)-5′-(2-(piperidin-1-yl)ethoxy)-1′,4′-dihydro-3′H-spiro[piperidine-4,2′-pyrazino[2,3-c]quinolin]-3′-one], the pIC50 in experiment [1] was 5.30 to 6.00.
Turning to `C=CC(=O)N1CCC2(CC1)C(=O)Nc1c(OC[C@@H]3CCCN3C)nc3c(F)c(-c4cc(O)cc5ccccc45)c(Cl)cc3c12` [Example 13, 1-Acryloyl-8′-chloro-6′-fluoro-7′-(3-hydroxynaphthalen-1-yl)-4′-(((S)-1-methylpyrrolidin-2-yl)methoxy)spiro[piperidine-4,1′-pyrrolo[2,3-c]quinolin]-2′(3′H)-one], the pIC50 at KRAS G12C was at least 7.00. Moreover, the “G12C_pERK (KRAS_G12C pERK assay IC50)” value in experiment [1] was “††”.
As to `C=CC(=O)N1CCC2(C1)C(=O)Nc1c(OC[C@@H]3CCCN3C)nc3c(F)c(-c4cc(O)cc5ccccc45)c(Cl)cc3c12` (stereo partly drawn) [Example 14, 1-Acryloyl-8′-chloro-6′-fluoro-7′-(3-hydroxynaphthalen-1-yl)-4′-(((S)-1-methylpyrrolidin-2-yl)methoxy)spiro[pyrrolidine-3,1′-pyrrolo[2,3-c]quinolin]-2′(3′H)-one], in experiment [1], the “G12C_pERK (KRAS_G12C pERK assay IC50)” value is listed as “††”.
For `C=CC(=O)N1CCC2(CC1)CC(=O)c1cnc3c(F)c(-c4cc(O)cc5ccccc45)c(Cl)cc3c1O2` [Example 17, 1-Acryloyl-9′-chloro-7′-fluoro-8′-(3-hydroxynaphthalen-1-yl)spiro[piperidine-4,2′-pyrano[3,2-c]quinolin]-4′(3′H)-one], the pIC50 at KRAS G12C was 5.30 to 6.00.
`C=CC(=O)N1CC2(C1)Nc1c(c(OC[C@@H]3CCCN3C)nc3c(F)c(-c4c(O)cccc4F)c(Cl)cc13)NC2=O` [Example 18, 1-Acryloyl-9′-chloro-7′-fluoro-8′-(2-fluoro-6-hydroxyphenyl)-5′-(((S)-1-methylpyrrolidin-2-yl)methoxy)-1′,4′-dihydro-3′H-spiro[azetidine-3,2′-pyrazino[2,3-c]quinolin]-3′-one]: the pIC50 in experiment [1] is 5.30 to 6.00.
